In patent US9149038B2, “4-amino-6-(heterocyclic)picolinates and 6-amino-2-(heterocyclic)pyrimidine-4-carboxylates and their use as herbicides” (Dow AgroSciences LLC, priority 2013, dated 2015):
Where two headings read alike, the source gives them in different places.

Key:
Type in all cases: in vivo
[1] = test system: Key Broadleaf and Grass Weed as well as Crop Species; experiment: Post-Emergent Test I: postemergent herbicidal activity, visual phytotoxicity rating 10 days after treatment (Table 5); conditions: 4 kg ai/ha; for Visual Growth Reduction (%) 10 Days After Application ECHCG: barnyardgrass (Echinochloa crus-galli); for pest or weed control at 4000 g/ha: post-emergence, 240 h, 10 days after application
In short: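 Plants grown 8-12 d in greenhouse (16 h photoperiod, 24-29° C.) before spraying compounds in acetone-DMSO/water-isopropanol-crop oil concentrate with 0.02% Triton X-155 at roughly 4.0, 2.0, 1.0 and 0.5 kg/ha. Injury scored visually 10 days after treatment, 0 (no activity) to 100 (complete plant death).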

[2] = test system: Key Broadleaf Weed and Crop Species; experiment: Post-Emergent Test II: postemergent herbicidal activity, visual rating after 14 d (Table 7); conditions: post-emergence, 336 h; for pest or weed control at 35 g/ha: 35 g ai/ha; for pest or weed control at 70 g/ha: 70 g ai/ha; for pest or weed control at 140 g/ha: 140 g ai/ha; for pest or weed control at 280 g/ha: 280 g ai/ha
In short: (§1)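 Scoring is visual, 0-100, at 14 d after application, comparing treated with untreated plants. Application: overhead track spray at 187 L/ha onto seedlings at 1-2 true leaves, in surfactant/crop-oil carrier.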

[3] = test system: Key Grass and Sedge Weeds as well as Grass Crops; experiment: Post-Emergent Test II: postemergent herbicidal activity, visual rating after 14 d (Table 8); conditions: post-emergence, 336 h; for pest or weed control at 35 g/ha: 35 g ai/ha; for pest or weed control at 70 g/ha: 70 g ai/ha; for pest or weed control at 140 g/ha: 140 g ai/ha; for pest or weed control at 280 g/ha: 280 g ai/ha
In short: as §1

[4] = giant foxtail (Setaria faberi), read-out: Visual Growth Reduction (%) 10 Days After Application SETFA
[5] = ivyleaf morningglory (Ipomoea hederecea), read-out: Visual Growth Reduction (%) 10 Days After Application IPOHE
[6] = sunflower (Helianthus annuus), read-out: Visual Growth Reduction (%) 10 Days After Application HELAN
[7] = wild oats (Avena fatua), read-out: Visual Growth Reduction (%) 10 Days After Application AVEFA
[8] = lambsquarters (Chenopodium album), read-out: Visual Growth Reduction (%) 14 Days After Application CHEAL
[9] = oilseed rape, canola (Brassica napus), read-out: Visual Growth Reduction (%) 14 Days After Application BRSNN
[10] = redroot pigweed (Amaranthus retroflexus), read-out: Visual Growth Reduction (%) 14 Days After Application AMARE
[11] = sunflower (Helianthus annuus), read-out: Visual Growth Reduction (%) 14 Days After Application HELAN
[12] = velvetleaf (Abutilon theophrasti), read-out: Visual Growth Reduction (%) 14 Days After Application ABUTH
[13] = wild poinsettia (Euphorbia heterophylla), read-out: Visual Growth Reduction (%) 14 Days After Application EPHHL
[14] = barnyardgrass (Echinochloa crus-galli), read-out: Visual Growth Reduction (%) 14 Days After Application ECHCG
[15] = giant foxtail (Setaria faberi), read-out: Visual Growth Reduction (%) 14 Days After Application SETFA
[16] = maize, corn (Zea mays), read-out: Visual Growth Reduction (%) 14 Days After Application ZEAMX
[17] = rice (Oryza sativa), read-out: Visual Growth Reduction (%) 14 Days After Application ORYSA
[18] = wheat, spring (Triticum aestivum), read-out: Visual Growth Reduction (%) 14 Days After Application TRZAS
[19] = yellow nutsedge (Cyperus esculentus), read-out: Visual Growth Reduction (%) 14 Days After Application CYPES

## Nc1c(F)c(-c2cccc3c2OCO3)nc(C(=O)O)c1Cl [Compound 72, 4-Amino-6-(benzo[d][1,3]dioxol-4-yl)-3-chloro-5-fluoropicolinic acid]
[1]
  Visual Growth Reduction (%) 10 Days After Application ECHCG: G (0-29)
[1]; [4]
  pest or weed control at 4000 g/ha: 0 to 29%
[1]; [5]
  pest or weed control at 4000 g/ha: 0 to 29%
[1]; [6]
  pest or weed control at 4000 g/ha: 95 to 100%
[1]; [7]
  pest or weed control at 4000 g/ha: 0 to 29%
[2]; [8]
  pest or weed control at 35 g/ha: 95 to 100%
  pest or weed control at 70 g/ha: 95 to 100%
  pest or weed control at 140 g/ha: 95 to 100%
  pest or weed control at 280 g/ha: 95 to 100%
[2]; [9]
  pest or weed control at 35 g/ha: 75 to 84%
  pest or weed control at 70 g/ha: 95 to 100%
  pest or weed control at 140 g/ha: 95 to 100%
  pest or weed control at 280 g/ha: 95 to 100%
[2]; [10]
  pest or weed control at 35 g/ha: 95 to 100%
  pest or weed control at 70 g/ha: 95 to 100%
  pest or weed control at 140 g/ha: 95 to 100%
  pest or weed control at 280 g/ha: 95 to 100%
[2]; [11]
  pest or weed control at 35 g/ha: 95 to 100%
  pest or weed control at 70 g/ha: 95 to 100%
  pest or weed control at 140 g/ha: 95 to 100%
  pest or weed control at 280 g/ha: 95 to 100%
[2]; [12]
  pest or weed control at 35 g/ha: 75 to 84%
  pest or weed control at 70 g/ha: 95 to 100%
  pest or weed control at 140 g/ha: 95 to 100%
  pest or weed control at 280 g/ha: 95 to 100%
[2]; [13]
  pest or weed control at 35 g/ha: 0 to 29%
  pest or weed control at 70 g/ha: 0 to 29%
  pest or weed control at 140 g/ha: 0 to 29%
  pest or weed control at 280 g/ha: 0 to 29%
[3]; [14]
  pest or weed control at 35 g/ha: 0 to 29%
  pest or weed control at 70 g/ha: 0 to 29%
  pest or weed control at 140 g/ha: 0 to 29%
  pest or weed control at 280 g/ha: 0 to 29%
[3]; [15]
  pest or weed control at 35 g/ha: 0 to 29%
  pest or weed control at 70 g/ha: 0 to 29%
  pest or weed control at 140 g/ha: 0 to 29%
  pest or weed control at 280 g/ha: 0 to 29%
[3]; [16]
  pest or weed control at 35 g/ha: 0 to 29%
  pest or weed control at 70 g/ha: 0 to 29%
  pest or weed control at 140 g/ha: 0 to 29%
  pest or weed control at 280 g/ha: 0 to 29%
[3]; [17]
  pest or weed control at 35 g/ha: 0 to 29%
  pest or weed control at 70 g/ha: 0 to 29%
  pest or weed control at 140 g/ha: 0 to 29%
  pest or weed control at 280 g/ha: 0 to 29%
[3]; [18]
  pest or weed control at 35 g/ha: 0 to 29%
  pest or weed control at 70 g/ha: 0 to 29%
  pest or weed control at 140 g/ha: 0 to 29%
  pest or weed control at 280 g/ha: 0 to 29%
[3]; [19]
  pest or weed control at 35 g/ha: 0 to 29%
  pest or weed control at 70 g/ha: 0 to 29%
  pest or weed control at 140 g/ha: 0 to 29%
  pest or weed control at 280 g/ha: 0 to 29%

## Nc1c(Cl)c(C(=O)O)nc(-c2cc3c(cc2F)OC(F)(F)O3)c1Cl [Compound 3]
[1]
  Visual Growth Reduction (%) 10 Days After Application ECHCG: C (75-84)
[1]; [4]
  pest or weed control at 4000 g/ha: 75 to 84%
[1]; [5]
  pest or weed control at 4000 g/ha: 75 to 84%
[1]; [6]
  pest or weed control at 4000 g/ha: 75 to 84%
[1]; [7]
  pest or weed control at 4000 g/ha: 75 to 84%
[2]; [8]
  pest or weed control at 35 g/ha: 0 to 29%
  pest or weed control at 70 g/ha: 0 to 29%
  pest or weed control at 140 g/ha: 45 to 59%
[2]; [9]
  pest or weed control at 35 g/ha: 0 to 29%
  pest or weed control at 70 g/ha: 0 to 29%
  pest or weed control at 140 g/ha: 0 to 29%
[2]; [10]
  pest or weed control at 35 g/ha: 0 to 29%
  pest or weed control at 70 g/ha: 95 to 100%
  pest or weed control at 140 g/ha: 95 to 100%
[2]; [11]
  pest or weed control at 35 g/ha: 0 to 29%
  pest or weed control at 70 g/ha: 0 to 29%
  pest or weed control at 140 g/ha: 85 to 94%
[2]; [12]
  pest or weed control at 35 g/ha: 0 to 29%
  pest or weed control at 70 g/ha: 0 to 29%
  pest or weed control at 140 g/ha: 0 to 29%
[2]; [13]
  pest or weed control at 35 g/ha: 0 to 29%
  pest or weed control at 70 g/ha: 0 to 29%
  pest or weed control at 140 g/ha: 0 to 29%
[3]; [14]
  pest or weed control at 35 g/ha: 0 to 29%
  pest or weed control at 70 g/ha: 0 to 29%
  pest or weed control at 140 g/ha: 0 to 29%
[3]; [15]
  pest or weed control at 35 g/ha: 0 to 29%
  pest or weed control at 70 g/ha: 0 to 29%
  pest or weed control at 140 g/ha: 0 to 29%
[3]; [16]
  pest or weed control at 35 g/ha: 0 to 29%
  pest or weed control at 70 g/ha: 0 to 29%
  pest or weed control at 140 g/ha: 0 to 29%
[3]; [17]
  pest or weed control at 35 g/ha: 0 to 29%
  pest or weed control at 70 g/ha: 0 to 29%
  pest or weed control at 140 g/ha: 0 to 29%
[3]; [18]
  pest or weed control at 35 g/ha: 0 to 29%
  pest or weed control at 70 g/ha: 0 to 29%
  pest or weed control at 140 g/ha: 0 to 29%
[3]; [19]
  pest or weed control at 35 g/ha: 0 to 29%
  pest or weed control at 70 g/ha: 0 to 29%
  pest or weed control at 140 g/ha: 0 to 29%
